Assay [1] relates to vancomycin aptamer (DNA, aptamer) CGAGGGTACCGCAATAGTACTTATTGTTCGCCTATTGTGGGTCGG
Briefly: FFT-EIS electrochemical aptamer-based sensor (ket titration). The conditions noted are these: whole bovine blood, 37 °C; apparent; error is 95% confidence interval; Hill–Langmuir fit.

Assay [2] concerns phenylalanine aptamer (DNA, aptamer) CGACCGCGTTTCCCAAGAAAGCAAGTATTGGTTGGTCG
Briefly: FFT-EIS electrochemical aptamer-based sensor. The conditions noted are these: in vitro calibration; details only in supporting information.

As to `CN[C@H](CC(C)C)C(=O)N[C@H]1C(=O)N[C@@H](CC(N)=O)C(=O)N[C@H]2C(=O)N[C@H]3C(=O)N[C@H](C(=O)N[C@H](C(=O)O)c4cc(O)cc(O)c4-c4cc3ccc4O)[C@H](O)c3ccc(c(Cl)c3)Oc3cc2cc(c3O[C@@H]2O[C@H](CO)[C@@H](O)[C@H](O)[C@H]2O[C@H]2C[C@](C)(N)[C@H](O)[C@H](C)O2)Oc2ccc(cc2Cl)[C@H]1O`, the KD in assay [1] was 144 ± 31 µM. For the compound `N[C@@H](Cc1ccccc1)C(=O)O`, the binding result in assay [2] was “yes”.

(Values after article PMC10463274 (2023).)
